Values joined by “and” are separate entries in the source; they are usually repeats but may differ in a detail not shown here. Equal values may be shown once.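 1) Cells in 96-well plates. 2) Compound, 48 h, 5 concentrations. 3) Linear interpolation between surrounding doses. 4) Unreached endpoint = highest concentration. At the GI50, growth is halved. At the TGI there is no net growth.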
Assays:
Assay in all cases: NCI tumour cell line growth inhibition, 48 h
786-0 renal = system: 786-0 renal
EKVX NSCLC = system: EKVX NSCLC
HL-60(TB) leukemia = system: HL-60(TB) leukemia
MALME-3M melanoma = system: MALME-3M melanoma
NCI-H226 lung = system: NCI-H226 lung
OVCAR-5 ovarian = system: OVCAR-5 ovarian
SF-539 CNS = system: SF-539 CNS
SK-MEL-5 melanoma = system: SK-MEL-5 melanoma
TK-10 renal = system: TK-10 renal
OVCAR-4 ovarian = system: OVCAR-4 ovarian

Row | Structure (SMILES) | GI50 (786-0 renal) [µM] | TGI (786-0 renal) [µM] | GI50 (EKVX NSCLC) [µM] | TGI (EKVX NSCLC) [µM] | GI50 (HL-60(TB) leukemia) [µM] | TGI (HL-60(TB) leukemia) [µM] | GI50 (MALME-3M melanoma) [µM] | TGI (MALME-3M melanoma) [µM] | GI50 (NCI-H226 lung) [µM] | TGI (NCI-H226 lung) [µM] | GI50 (OVCAR-5 ovarian) | TGI (OVCAR-5 ovarian) [µM] | GI50 (SF-539 CNS) [µM] | TGI (SF-539 CNS) [µM] | GI50 (SK-MEL-5 melanoma) [µM] | TGI (SK-MEL-5 melanoma) [µM] | GI50 (TK-10 renal) [µM] | TGI (TK-10 renal) [µM] | TGI (OVCAR-4 ovarian) | GI50 (OVCAR-4 ovarian) [µM]
1 | O=C(/C=C/C12c3ccccc3C(c3ccccc31)C1C(=O)N(c3ccccc3)C(=O)C12)c1ccc(Cl)cc1 (configuration not stated) | 2.44 | 6.97 | 1.85 | 9.89 | 0.795 | 5.18 | 1.6 | 3.37 | 2.04 | 5.82 | 1.6 µM | 4.66 | 1.69 | 3.79 | 1.95 | 4.07 | 3.18 | 25.1 | – | –
2 | C=CCC1C(=O)C(C(=O)OC)N2CCc3c([nH]c4ccccc34)C12 (configuration not stated) | – | > 100 | – | > 100 | – | > 100 | – | > 100 | – | – | – | > 100 | – | > 100 | – | > 100 | – | > 100 | > 100 µM | –
3 | Cc1cc(Cc2cc(C)c(O)c(C)c2)cc(C)c1O | 10.4 | 40.4 | – | – | 2.89 | 9.86 | 9.12 | 59.2 | 19.2 | 77.1 | 17.8 µM | 61.9 | 3.25 | 14.2 | 4.53 | 17.5 | 11.2 | 56.8 | > 100 µM | 29
4 | CCCN(CCCN)/[N+]([O-])=N\O | – | > 100 | – | 0.921 | – | > 100 | – | > 100 | – | > 100 | – | > 100 | – | > 100 | – | > 100 | – | – | > 100 µM | –
5 | Cc1cc(N2CCN(C)CC2)nc(NCc2cc(Nc3ccnc4cc(Cl)ccc34)ccc2F)n1 | 1.84 | 3.7 | 2.5 | > 100 | 1.86 | 3.96 | 2.08 | 3.89 | 7.88 | 55.4 | – | – | 1.69 | 3.24 | 1.44 | 2.75 | 2.25 | 5.82 | 6.13 µM | 1.42
6 | CC(=O)Nc1ccc(-c2c3nc(c(-c4cc5ccccc5[n+](C)c4)c4ccc([nH]4)c(-c4ccc(NC(C)=O)cc4)c4nc(c(-c5cc6ccccc6[n+](C)c5)c5ccc2[nH]5)C=C4)C=C3)cc1 | 9.97 | 35.6 | 9.09 | 31.6 | 10.1 | 29.2 | 16.9 | > 50 | – | – | 8.54 µM | > 50 | – | – | 21.8 | > 50 | 15.2 | 44.6 | 30.3 µM | 3.76
7 | COc1cc([N+](=O)[O-])c(S(=O)(=O)O)cc1NS(=O)(=O)c1ccc(C)cc1 | – | > 100 | – | > 100 | – | > 100 | – | – | – | > 100 | – | > 100 | – | > 100 | – | > 100 | – | > 100 | > 100 µM | –
8 | O=C(O)C1CCc2nnc(-c3ccccc3)n21 (configuration not stated) | – | > 100 | – | > 100 | – | > 100 | – | > 100 | – | > 100 | – | – | – | > 100 | – | > 100 | – | > 100 | > 100 µM | –
9 | CCC1=C(C)/C(=C/c2[nH]c(C(Br)Br)c(CC)c2C)N=C1C(Br)Br | – | > 100 | – | > 100 | – | 52.2 | – | 76.4 | – | 90.1 | – | > 100 | – | > 100 | – | 32.1 | – | > 100 | – | –
10 | Cc1onc(-c2c(F)cccc2Cl)c1-c1ncc(-c2ccc(Cl)cc2)o1 | 5.14 | > 100 | – | – | 4.02 | > 100 | 6.43 | > 100 | 5.93 | > 100 | 74.4 µM | > 100 | 5.07 | > 100 | 2.55 | 8.33 | 8.33 | > 100 | > 100 µM | 13.9
11 | CNC(=S)N/N=C1\CC(c2ccccc2)Oc2ccccc21 (configuration not stated) | – | > 100 | – | > 100 | – | – | – | > 100 | – | > 100 | – | > 100 | – | > 100 | – | > 100 | – | > 100 | > 100 µM | –
12 | O=C(Cn1c(=O)c(-c2ccccc2)nc2ccccc21)c1ccc(Cl)cc1 | 27 | 86.6 | 94.2 | > 100 | – | – | > 100 | > 100 | 53.5 | > 100 | > 100 µM | > 100 | – | – | > 100 | > 100 | 25.7 | > 100 | > 100 µM | 33.4
13 | C[C@@H](C1CCC2C3C(=CC(=O)[C@@]21C)[C@H](C)[C@]1(CCC(=O)O1)C1OC31)[C@H]1C[C@]2(C)O[C@@](C)(O1)OC2(C)C (some centres not stated) | – | > 100 | – | > 100 | – | > 100 | – | – | – | – | – | – | – | > 100 | – | > 100 | – | > 100 | – | –
14 | CCOC(=O)C1=C(C)NC2SC(=O)/C(=C\c3ccccc3Cl)N2C1c1ccccc1 (configuration not stated) | > 100 | > 100 | > 100 | > 100 | 59.5 | > 100 | – | – | > 100 | > 100 | > 100 µM | > 100 | > 100 | > 100 | 50.2 | > 100 | > 100 | > 100 | – | –
15 | [C-]#[O+].[Cl][Sn]([Cl])[Cl].[Cl][Sn]([Cl])[Cl].[Pt].c1ccc([PH+](c2ccccc2)c2ccccc2)cc1.c1ccc([PH+](c2ccccc2)c2ccccc2)cc1 | 53.5 | > 100 | 28 | > 100 | 25.4 | 69.1 | 60 | > 100 | – | – | 88 µM | > 100 | 92.3 | > 100 | 31.5 | > 100 | 25.5 | 52.3 | > 100 µM | 56.1
16 | CC(N=C(N)N)C(=O)O (configuration not stated) | – | > 100 | – | > 100 | – | – | – | > 100 | – | > 100 | – | > 100 | – | – | – | > 100 | – | > 100 | > 100 µM | –
17 | C/C=C(\C)c1cc(=O)c2c(C)cc3c(c2o1)C(=O)c1c(O)c(C2CC(C)(N(C)C)C(O)C(C)O2)cc(C2CC(N(C)C)C(O)C(C)O2)c1C3=O (configuration not stated) | – | 0.946 | – | 1.59 | – | 6.82 | – | – | – | – | 0.579 µM and 3.79 µM | – | – | – | – | – | – | 0.729 | 3.64 µM and 11.2 µM | –

— PubChem BioAssay (NCI)
